Source: US6352714B1, “Method of producing a metal nutrient for an animal feed” (DER, Inc., priority 2000, dated 2002)

Test system: nursery pigs
Experiment: Chromium supplementation feeding study in nursery pigs (growth performance)
Format: in vivo
Details: diet with 400 ppb chromium
Description: A study was made to determine the effects of chromium leather hydrolysate supplementation in nursery pigs, as compared with other complexes, namely chromium picolinate and a yeast chromium complex. In this study, three groups of forty pigs each, with a mean weaning age of 17.6 days, were fed diets containing the chromium leather hydrolysate proteinate, chromium tripicolinate, or yeast chromium complex. In addition, a control group of forty pigs were not fed a supplement. In all cases, the chromium containing complex contained 400 ppb of chromium. Data relating to the average daily gains were obtained over three phases with Phase I being 0-7 days, Phase II being 8-14 days, and Phase III being 15-21 days.
In the above Table, ADG is “average daily gain” and ADFI is “average daily feed intake”.

## chromium tripicolinate [Chromium picolinate]
Phase I, 0-7 days
  ADFI (average daily feed intake): 545 gms
  ADG (average daily gain): 250 gms
  Gain/Feed: 0.54
Phase II, 8-14 days
  ADFI (average daily feed intake): 1.43 kg
  ADG (average daily gain): 0.92 kg
  Gain/Feed: 0.67
Phase III, 15-21 days
  ADFI (average daily feed intake): 2.61
  ADG (average daily gain): 1.26 kg
  Gain/Feed: 0.48
